Source: patent USRE47141E1, “Methods of treating fibrosis, cancer and vascular injuries” (EWHA University—Industry Collaboration Foundation, priority 2010, dated 2018)

Biological target: ALK5 (Homo sapiens (Human), UniProt P36897)
Experiment: Cell-free assay for inhibition of ALK5 kinase phosphorylation
Assay type: biochemical
Details: read-out: IC50 on ALK5 kinase phosphorylation

ALK5, sequence (P36897 34-503): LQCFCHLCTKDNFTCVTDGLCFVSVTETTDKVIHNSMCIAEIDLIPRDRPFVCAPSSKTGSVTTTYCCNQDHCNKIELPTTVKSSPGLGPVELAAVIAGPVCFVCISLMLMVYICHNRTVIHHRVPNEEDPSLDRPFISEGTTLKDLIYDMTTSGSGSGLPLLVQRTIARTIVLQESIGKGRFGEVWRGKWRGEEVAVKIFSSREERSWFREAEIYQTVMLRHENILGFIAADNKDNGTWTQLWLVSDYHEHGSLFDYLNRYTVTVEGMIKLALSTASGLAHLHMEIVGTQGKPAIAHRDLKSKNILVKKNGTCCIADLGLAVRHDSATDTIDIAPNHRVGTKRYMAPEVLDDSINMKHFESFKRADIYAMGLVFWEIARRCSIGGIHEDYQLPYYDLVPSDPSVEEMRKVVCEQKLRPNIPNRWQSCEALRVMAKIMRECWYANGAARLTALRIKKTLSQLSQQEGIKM

SMILES	IC50 [nM]
COc1cc(NCc2nc(-c3ccc4ncnn4c3)c(-c3cccc(C)n3)[nH]2)cc(OC)c1 [Example 47, N-((4-([1,2,4]triazolo[1,5-a]pyridin-6-yl)-5-(6-methylpyridin-2-yl)-1H-imidazol-2-yl)methyl)-3,5-dimethoxyaniline]	14.4
Cc1cccc(-c2[nH]c(CNc3ccc(Br)cc3)nc2-c2ccc3ncnn3c2)n1 [Example 22, N-((4-([1,2,4]triazolo[1,5-a]pyridin-6-yl)-5-(6-methylpyridin-2-yl)-1H-imidazol-2-yl)methyl)-4-bromoaniline]	17.1
Cc1cccc(-c2[nH]c(CNc3ccc(CC#N)cc3)nc2-c2ccc3ncnn3c2)n1 [Example 69, 2-(4-((4-([1,2,4]triazolo[1,5-a]pyridin-6-yl)-5-(6-methylpyridin-2-yl)-1H-imidazol-2-yl)methylamino)phenyl)acetonitrile]	24.5
C=Cc1ccc(NCc2nc(-c3ccc4ncnn4c3)c(-c3cccc(C)n3)[nH]2)cc1 [Example 40, N-((4-([1,2,4]triazolo[1,5-a]pyridin-6-yl)-5-(6-methylpyridin-2-yl)-1H-imidazol-2-yl)methyl)-4-vinylaniline]	29.6
Cc1cccc(-c2[nH]c(CN(C)c3cccc(C(N)=O)c3)nc2-c2ccc3ncnn3c2)n1 [Example 142]	153
Cc1cccc(-c2[nH]c(CNc3ccccc3NS(C)(=O)=O)nc2-c2ccc3ncnn3c2)n1 [Example 77, N-(2-((4-([1,2,4]triazolo[1,5-a]pyridin-6-yl)-5-(6-methylpyridin-2-yl)-1H-imidazol-2-yl)methylamino)phenyl)methanesulfonamide]	15.3
Cc1cccc(-c2[nH]c(CSc3ccccc3)nc2-c2ccc3ncnn3c2)n1 [Example 152, 6-(5-(6-methylpyridin-2-yl)-2-(phenylthiomethyl)-1H-imidazol-4-yl)-[1,2,4]triazolo[1,5-a]pyridine]	20.7
CC(=O)Nc1ccccc1NCc1nc(-c2ccc3ncnn3c2)c(-c2cccc(C)n2)[nH]1 [Example 74, N-(2-((4-([1,2,4]triazolo[1,5-a]pyridin-6-yl)-5-(6-methylpyridin-2-yl)-1H-imidazol-2-yl)methylamino)phenyl)acetamide]	39.5
Cc1cccc(-c2[nH]c(COc3cccc(C#N)c3)nc2-c2ccc3ncnn3c2)n1 [Example 150, 3-((4-([1,2,4]triazolo[1,5-a]pyridin-6-yl)-5-(6-methylpyridin-2-yl)-1H-imidazol-2-yl)methoxy)benzonitrile]	23.9
Cc1cccc(-c2[nH]c(CNc3cccc(OC(F)(F)F)c3)nc2-c2ccc3ncnn3c2)n1 [Example 52, N-((4-([1,2,4]triazolo[1,5-a]pyridin-6-yl)-5-(6-methylpyridin-2-yl)-1H-imidazol-2-yl)methyl)-3-(trifluoromethoxy)aniline]	23.4
Cc1cccc(-c2[nH]c(CNc3ccc(C(N)=O)cc3)nc2-c2ccc3ncnn3c2)n1 [Example 67, 4-((4-([1,2,4]triazolo[1,5-a]pyridin-6-yl)-5-(6-methylpyridin-2-yl)-1H-imidazol-2-yl)methylamino)benzamide]	54.6
Cc1cccc(-c2[nH]c(CNc3ccccc3C(N)=O)nc2-c2ccc3ncnn3c2)n1 [Example 65, 2-((4-([1,2,4]triazolo[1,5-a]pyridin-6-yl)-5-(6-methylpyridin-2-yl)-1H-imidazol-2-yl)methylamino)benzamide]	29.7
Cc1cccc(-c2[nH]c(CN(C)c3ccccc3F)nc2-c2ccc3ncnn3c2)n1 [Example 140, N-((4-([1,2,4]triazolo[1,5-a]pyridin-6-yl)-5-(6-methylpyridin-2-yl)-1H-imidazol-2-yl)methyl)-2-fluoro-N-methylaniline]	49.8
COCc1ccccc1NCc1nc(-c2ccc3ncnn3c2)c(-c2cccc(C)n2)[nH]1 [Example 48, N-((4-([1,2,4]triazolo[1,5-a]pyridin-6-yl)-5-(6-methylpyridin-2-yl)-1H-imidazol-2-yl)methyl)-2-(methoxymethyl)aniline]	24.1
Cc1cccc(-c2[nH]c(CN(C)c3cccc(C#N)c3)nc2-c2ccc3ncnn3c2)n1 [Example 141]	118
Cc1cccc(-c2[nH]c(CNc3ccc(NS(C)(=O)=O)cc3)nc2-c2ccc3ncnn3c2)n1 [Example 79, N-(4-((4-([1,2,4]triazolo[1,5-c]pyridin-6-yl)-5-(6-methylpyridin-2-yl)-1H-imidazol-2-yl)methylamino)phenyl)methanesulfonamide]	46.6
CC(=O)c1ccc(NCc2nc(-c3ccc4ncnn4c3)c(-c3cccc(C)n3)[nH]2)cc1 [Example 71, 1-(4-((4-([1,2,4]triazolo[1,5-a]pyridin-6-yl)-5-(6-methylpyridin-2-yl)-1H-imidazol-2-yl)methylamino)phenyl)ethanone]	59.1

Continued by falling IC50, values first:

IC50 [nM]	SMILES
14.3	Cc1cc(C)cc(NCc2nc(-c3ccc4ncnn4c3)c(-c3cccc(C)n3)[nH]2)c1 [Example 29, N-((4-([1,2,4]triazolo[1,5-a]pyridin-6-yl)-5-(6-methylpyridin-2-yl)-1H-imidazol-2-yl)methyl)-3,5-dimethylaniline]
12.3	Cc1cccc(-c2[nH]c(CNc3ccccc3OC(F)(F)F)nc2-c2ccc3ncnn3c2)n1 [Example 51, N-((4-([1,2,4]triazolo[1,5-a]pyridin-6-yl)-5-(6-methylpyridin-2-yl)-1H-imidazol-2-yl)methyl)-2-(trifluoromethoxy)aniline]
11.9	C=Cc1cccc(NCc2nc(-c3ccc4ncnn4c3)c(-c3cccc(C)n3)[nH]2)c1 [Example 37, N-((4-([1,2,4]triazolo[1,5-a]pyridin-6-yl)-5-(6-methylpyridin-2-yl)-1H-imidazol-2-yl)methyl)-3-vinylaniline]
9.93	CSc1ccccc1NCc1nc(-c2ccc3ncnn3c2)c(-c2cccc(C)n2)[nH]1 [Example 54, N-((4-([1,2,4]triazolo[1,5-a]pyridin-6-yl)-5-(6-methylpyridin-2-yl)-1H-imidazol-2-yl)methyl)-2-(methylthio)aniline]
9.41	Cc1cccc(-c2[nH]c(CNc3cccc(F)c3)nc2-c2ccc3ncnn3c2)n1 [Example 5, N-((4-([1,2,4]triazolo[1,5-a]pyridin-6-yl)-5-(6-methylpyridin-2-yl)-1H-imidazol-2-yl)methyl)-3-fluoroaniline]
9.41	Cc1cccc(-c2[nH]c(CNc3ccccc3Cl)nc2-c2ccc3ncnn3c2)n1 [Example 10, N-((4-([1,2,4]triazolo[1,5-a]pyridin-6-yl)-5-(6-methylpyridin-2-yl)-1H-imidazol-2-yl)methyl)-2-chloroaniline]
9.4	CCc1cccc(-c2[nH]c(CNc3cccc(C#N)c3)nc2-c2ccc3ncnn3c2)n1 [Example 138, 3-((4-([1,2,4]triazolo[1,5-a]pyridin-6-yl)-5-(6-ethylpyridin-2-yl)-1H-imidazol-2-yl)methylamino)benzonitrile]
6.7	CSc1cccc(NCc2nc(-c3ccc4ncnn4c3)c(-c3cccc(C)n3)[nH]2)c1 [Example 55, N-((4-([1,2,4]triazolo[1,5-a]pyridin-6-yl)-5-(6-methylpyridin-2-yl)-1H-imidazol-2-yl)methyl)-3-(methylthio)aniline]
4.53	Cc1cccc(-c2[nH]c(CNc3cccc(Br)c3)nc2-c2ccc3ncnn3c2)n1 [Example 20, N-((4-([1,2,4]triazolo[1,5-a]pyridin-6-yl)-5-(6-methylpyridin-2-yl)-1H-imidazol-2-yl)methyl)-3-bromoaniline]
